± gives the expanded uncertainty stated by the source.
Assay: xn = mol fraction of the nth substance listed
Details: for speed of sound: 100 kPa, Sing-around technique in a fixed-path interferometer; for speed of sound / viscosity / mass density: Liquid; for viscosity / mass density: 101 kPa; for viscosity: Falling or rolling sphere viscometry; for mass density: Vibrating tube method; for surface tension liquid-gas: 294.4 K, Pendant drop shape

CCCCCCCCCCCCCCCC [hexadecane] + Cc1ccccc1
Details | mass density [kg/m3] | speed of sound [m/s] | viscosity [mPa·s]
293.15 K, x2 = 0 | 773.49 ± 0.33 | 1357.3 ± 0.9 | 3.44 ± 0.03
293.15 K, x2 = 0.1002 | 776.71 ± 0.33 | 1352.9 ± 0.9 | 3.03 ± 0.03
293.15 K, x2 = 0.2 | 780.38 ± 0.33 | 1348.1 ± 0.9 | 2.64 ± 0.02
293.15 K, x2 = 0.3018 | 784.83 ± 0.33 | 1343.1 ± 0.9 | 2.28 ± 0.02
293.15 K, x2 = 0.4001 | 789.87 ± 0.33 | 1337.2 ± 0.8 | 1.96 ± 0.02
293.15 K, x2 = 0.5 | 796.1 ± 0.33 | 1332 ± 0.8 | 1.66 ± 0.02
293.15 K, x2 = 0.6001 | 803.76 ± 0.32 | 1326.5 ± 0.8 | 1.4 ± 0.02
293.15 K, x2 = 0.7005 | 813.44 ± 0.32 | 1321.5 ± 0.8 | 1.16 ± 0.01
293.15 K, x2 = 0.8001 | 825.95 ± 0.32 | 1318 ± 0.8 | 0.94 ± 0.01
293.15 K, x2 = 0.8999 | 842.77 ± 0.32 | 1318 ± 0.8 | 0.76 ± 0.01
303.15 K, x2 = 0 | 766.55 ± 0.34 | 1320 ± 0.9 | 2.72 ± 0.02
303.15 K, x2 = 0.1002 | 769.7 ± 0.33 | 1315.5 ± 0.9 | 2.42 ± 0.02
303.15 K, x2 = 0.2 | 773.29 ± 0.33 | 1310.6 ± 0.9 | 2.14 ± 0.02
303.15 K, x2 = 0.3018 | 777.64 ± 0.33 | 1305.5 ± 0.8 | 1.87 ± 0.02
303.15 K, x2 = 0.4001 | 782.56 ± 0.33 | 1299.4 ± 0.8 | 1.63 ± 0.02
303.15 K, x2 = 0.5 | 788.63 ± 0.33 | 1293.9 ± 0.8 | 1.4 ± 0.02
303.15 K, x2 = 0.6001 | 796.11 ± 0.33 | 1288 ± 0.8 | 1.19 ± 0.01
303.15 K, x2 = 0.7005 | 805.54 ± 0.32 | 1282.4 ± 0.8 | 1 ± 0.01
303.15 K, x2 = 0.8001 | 817.73 ± 0.32 | 1278.2 ± 0.8 | 0.82 ± 0.01
303.15 K, x2 = 0.8999 | 834.11 ± 0.32 | 1277 ± 0.7 | 0.67 ± 0.01
313.15 K, x2 = 0 | 759.63 ± 0.34 | 1283.3 ± 0.9 | –
313.15 K, x2 = 0.1002 | 762.7 ± 0.33 | 1278.7 ± 0.9 | –
313.15 K, x2 = 0.2 | 766.2 ± 0.33 | 1273.6 ± 0.9 | –
313.15 K, x2 = 0.3018 | 770.44 ± 0.33 | 1268.4 ± 0.8 | –
313.15 K, x2 = 0.4001 | 775.24 ± 0.33 | 1262.1 ± 0.8 | –
313.15 K, x2 = 0.5 | 781.15 ± 0.33 | 1256.2 ± 0.8 | –
313.15 K, x2 = 0.6001 | 788.42 ± 0.33 | 1250 ± 0.8 | –
313.15 K, x2 = 0.7005 | 797.59 ± 0.32 | 1243.8 ± 0.8 | –
313.15 K, x2 = 0.8001 | 809.46 ± 0.32 | 1238.8 ± 0.8 | –
313.15 K, x2 = 0.8999 | 825.38 ± 0.32 | 1236.4 ± 0.7 | –
323.15 K, x2 = 0 | 752.71 ± 0.34 | 1247.3 ± 0.9 | 1.82 ± 0.02
323.15 K, x2 = 0.1002 | 755.7 ± 0.34 | 1242.6 ± 0.9 | 1.65 ± 0.02
323.15 K, x2 = 0.2 | 759.11 ± 0.33 | 1237.4 ± 0.9 | 1.49 ± 0.02
323.15 K, x2 = 0.3018 | 763.23 ± 0.33 | 1231.9 ± 0.8 | 1.33 ± 0.02
323.15 K, x2 = 0.4001 | 767.89 ± 0.33 | 1225.4 ± 0.8 | 1.18 ± 0.01
323.15 K, x2 = 0.5 | 773.64 ± 0.33 | 1219.2 ± 0.8 | 1.04 ± 0.01
323.15 K, x2 = 0.6001 | 780.71 ± 0.33 | 1212.5 ± 0.8 | 0.9 ± 0.01
323.15 K, x2 = 0.7005 | 789.6 ± 0.33 | 1205.7 ± 0.8 | 0.77 ± 0.01
323.15 K, x2 = 0.8001 | 801.12 ± 0.32 | 1199.9 ± 0.7 | 0.64 ± 0.01
323.15 K, x2 = 0.8999 | 816.6 ± 0.32 | 1196.3 ± 0.7 | 0.52 ± 0.01
333.15 K, x2 = 0 | 745.79 ± 0.34 | 1212 ± 0.9 | 1.54 ± 0.02
333.15 K, x2 = 0.1002 | 748.7 ± 0.34 | 1207.1 ± 0.9 | 1.4 ± 0.02
333.15 K, x2 = 0.2 | 752 ± 0.33 | 1201.7 ± 0.8 | 1.27 ± 0.01
333.15 K, x2 = 0.3018 | 756 ± 0.33 | 1196 ± 0.8 | 1.15 ± 0.01
333.15 K, x2 = 0.4001 | 760.53 ± 0.33 | 1189.2 ± 0.8 | 1.03 ± 0.01
333.15 K, x2 = 0.5 | 766.1 ± 0.33 | 1182.7 ± 0.8 | 0.9 ± 0.01
333.15 K, x2 = 0.6001 | 772.93 ± 0.33 | 1175.6 ± 0.8 | 0.79 ± 0.01
333.15 K, x2 = 0.7005 | 781.29 ± 0.33 | 1168.2 ± 0.7 | 0.67 ± 0.01
333.15 K, x2 = 0.8001 | 792.74 ± 0.32 | 1161.7 ± 0.7 | 0.56 ± 0.01
333.15 K, x2 = 0.8999 | 807.75 ± 0.32 | 1156.7 ± 0.7 | 0.47 ± 0.01
343.15 K, x2 = 0 | 738.9 ± 0.3 | – | 1.31 ± 0.02
343.15 K, x2 = 0.1002 | 741.7 ± 0.3 | – | 1.21 ± 0.01
343.15 K, x2 = 0.2 | 744.9 ± 0.3 | – | 1.1 ± 0.01
343.15 K, x2 = 0.3018 | 748.9 ± 0.3 | – | 1 ± 0.01
343.15 K, x2 = 0.4001 | 753.2 ± 0.3 | – | 0.89 ± 0.01
343.15 K, x2 = 0.5 | 758.6 ± 0.3 | – | 0.8 ± 0.01
343.15 K, x2 = 0.6001 | 765.2 ± 0.3 | – | 0.69 ± 0.01
343.15 K, x2 = 0.7005 | 773.6 ± 0.3 | – | 0.6 ± 0.01
343.15 K, x2 = 0.8001 | 784.3 ± 0.3 | – | 0.51 ± 0.01
343.15 K, x2 = 0.8999 | 798.8 ± 0.3 | – | 0.43 ± 0.01
353.15 K, x2 = 0 | 731.8 ± 0.3 | – | 1.13 ± 0.01
353.15 K, x2 = 0.1002 | 734.5 ± 0.3 | – | 1.05 ± 0.01
353.15 K, x2 = 0.2 | 737.7 ± 0.3 | – | 0.96 ± 0.01
353.15 K, x2 = 0.3018 | 741.4 ± 0.3 | – | 0.87 ± 0.01
353.15 K, x2 = 0.4001 | 745.7 ± 0.3 | – | 0.79 ± 0.01
353.15 K, x2 = 0.5 | 750.9 ± 0.3 | – | 0.7 ± 0.01
353.15 K, x2 = 0.6001 | 757.2 ± 0.3 | – | 0.61 ± 0.01
353.15 K, x2 = 0.7005 | 765.3 ± 0.3 | – | 0.54 ± 0.01
353.15 K, x2 = 0.8001 | 775.7 ± 0.3 | – | 0.46 ± 0.01
353.15 K, x2 = 0.8999 | 789.7 ± 0.3 | – | 0.39 ± 0.01
363.15 K, x2 = 0 | 724.7 ± 0.3 | – | 0.99 ± 0.01
363.15 K, x2 = 0.1002 | 727.3 ± 0.3 | – | 0.92 ± 0.01
363.15 K, x2 = 0.2 | 730.4 ± 0.3 | – | 0.85 ± 0.01
363.15 K, x2 = 0.3018 | 733.9 ± 0.3 | – | 0.77 ± 0.01
363.15 K, x2 = 0.4001 | 738 ± 0.3 | – | 0.7 ± 0.01
363.15 K, x2 = 0.5 | 743.1 ± 0.3 | – | 0.62 ± 0.01
363.15 K, x2 = 0.6001 | 749.2 ± 0.3 | – | 0.55 ± 0.02
363.15 K, x2 = 0.7005 | 756.9 ± 0.3 | – | 0.48 ± 0.01
363.15 K, x2 = 0.8001 | 767 ± 0.3 | – | 0.4 ± 0.07
363.15 K, x2 = 0.8999 | 780.4 ± 0.3 | – | 0.33 ± 0.01
373.15 K, x2 = 0 | 717.5 ± 0.3 | – | 0.87 ± 0.01
373.15 K, x2 = 0.1002 | 720 ± 0.3 | – | 0.81 ± 0.01
373.15 K, x2 = 0.2 | 722.9 ± 0.3 | – | 0.76 ± 0.01
373.15 K, x2 = 0.3018 | 726.3 ± 0.3 | – | 0.69 ± 0.01
373.15 K, x2 = 0.4001 | 730.3 ± 0.3 | – | 0.64 ± 0.01
373.15 K, x2 = 0.5 | 735.1 ± 0.3 | – | 0.56 ± 0.01
373.15 K, x2 = 0.6001 | 741 ± 0.3 | – | –
373.15 K, x2 = 0.7005 | 748.5 ± 0.3 | – | –
373.15 K, x2 = 0.8001 | 758 ± 0.3 | – | –

Details | surface tension liquid-gas [mN/m]
x2 = 0 | 27.3 ± 0.4
x2 = 0.4001 | 27.3 ± 0.4
x2 = 0.5 | 27.5 ± 0.4
x2 = 0.6001 | 27.6 ± 0.4
x2 = 0.7006 | 27.7 ± 0.4
x2 = 0.8001 | 27.8 ± 0.4
x2 = 0.8999 | 28 ± 0.4

— the NIST ThermoML archive (doi:10.1021/je500498m)
